Source: PubChem BioAssay (NCI)
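Each compound was tested at five concentrations against cells in 96-well plates for 48 hours. Definition used: TGI = concentration required for complete inhibition of growth.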

Experiments:
Test in all cases: NCI anticancer screen, dose series, 48 h
SK-MEL-5 melanoma = tested on: SK-MEL-5 melanoma
SNB-19 CNS = tested on: SNB-19 CNS
UO-31 renal = tested on: UO-31 renal
UACC-62 melanoma = tested on: UACC-62 melanoma
EKVX NSCLC = tested on: EKVX NSCLC
HCT-15 colon = tested on: HCT-15 colon
NCI-H460 lung = tested on: NCI-H460 lung
OVCAR-4 ovarian = tested on: OVCAR-4 ovarian
SNB-75 CNS = tested on: SNB-75 CNS
DU-145 prostate = tested on: DU-145 prostate
IGROV1 ovarian = tested on: IGROV1 ovarian
SR leukemia = tested on: SR leukemia
CAKI-1 renal = tested on: CAKI-1 renal
TK-10 renal = tested on: TK-10 renal
HCC-2998 colon = tested on: HCC-2998 colon

Structure (SMILES) | TGI (SK-MEL-5 melanoma) [µM] | TGI (SNB-19 CNS) [µM] | TGI (UO-31 renal) [µM] | TGI (UACC-62 melanoma) [µM] | TGI (EKVX NSCLC) [µM] | TGI (HCT-15 colon) [µM] | TGI (NCI-H460 lung) [µM] | TGI (OVCAR-4 ovarian) [µM] | TGI (SNB-75 CNS) [µM] | TGI (DU-145 prostate) [µM] | TGI (IGROV1 ovarian) [µM] | TGI (SR leukemia) [µM] | TGI (CAKI-1 renal) [µM] | TGI (TK-10 renal) [µM] | TGI (HCC-2998 colon) [µM]
CN(C)Cc1cc(C(C)(C)C)cc(C2CCCCC2)c1O | 27.4 | 25.6 | 32.5 | 29.8 | 24.1 | 28.6 | 38.3 | 24.4 | 22.1 | 27.8 | 34.8 | 25.6 | 35 | 29.1 | 
C/C=C/[C@H](O[Si](C)(C)C(C)(C)C)[C@@H](O)/C=C/C(=O)OCC | 32.2 | 28.7 | 42.5 | 38.8 | 45.4 | 27.7 | 34.6 | 27.8 | > 100 | > 100 | 50.4 | 44.1 | 34.2 | 75.6 | 34.8
CCC(=O)C(C(C)/C=C/CCSc1ccccc1)C(O)CCCCCC(=O)OC (centres undefined) | > 100 | > 100 | > 100 | > 100 | > 100 | > 100 | > 100 | > 100 | > 100 | > 100 | > 100 | > 100 | > 100 | > 100 | > 100
O=c1[nH]n(Cc2ccccc2Cl)c2ccccc12 | > 100 | > 100 | > 100 | > 100 | > 100 | > 100 | > 100 | > 100 | > 100 | > 100 | > 100 | > 100 | > 100 | > 100 | > 100
COP(=O)(OC)/C(=C\c1cn(C(c2ccccc2)(c2ccccc2)c2ccccc2)cn1)NC(C)=O |  | > 100 | > 100 | > 100 | > 100 | > 100 | > 100 | > 100 | > 100 | > 100 | > 100 | > 100 | > 100 | > 100 | > 100
C[C@]12CC[C@H](O)CC1=CC[C@@H]1C2CC[C@]2(C)Nc3c(cnn3-c3ccc(F)cc3)CC12 (some centres undefined) | > 100 | > 100 | > 92.4 | > 100 | > 100 | > 100 | > 100 | 55.9 | 16.5 | > 100 | > 100 | > 100 | > 100 | > 100 | > 100
COc1cc(C(=O)Oc2c(C#N)sc3c2c(=O)n(-c2ccccc2)c(=S)n3-c2ccccc2)cc(OC)c1OC | 31.6 | 72 |  | 54.7 | 42.2 | 43 | 68.1 | 80.9 | 50.3 | 42.3 | 41 | > 100 | 84.3 | 95.9 | 45.2
O=C(NNC(=O)c1ccccc1O)c1ccc(O)cc1 | > 100 | > 100 | > 100 | > 100 | > 100 | > 100 | > 100 | > 100 | > 100 | > 100 | > 100 | > 100 | > 100 | > 100 | 
FC1=C2CCCCCC2SC1(F)F (centres undefined) | > 100 | > 100 | > 100 | > 100 | > 100 | > 100 |  | > 100 | > 100 | > 100 | > 100 | 53.6 | > 100 | > 100 | > 100
CC(=O)OCC(Br)C1(C)CCC(C(C)(C)Br)O1 (centres undefined) | > 100 | > 100 | > 100 |  | > 100 |  | > 100 | 72 | > 100 | > 100 | > 100 | > 100 | > 100 | > 100 | > 100
CN(C)Cc1cc(N=Nc2ccc(Cl)cc2)ccc1OC(=O)c1ccccc1 | 28.8 | 29.8 | 25.2 |  | 25.9 | 29.1 | 32.4 | 28.5 | 38.7 | 30.7 | 25.9 | 31.8 |  | 29.8 | 31
COc1cc(C2C(Cl)C(=O)N2NC(=O)c2ccc(NC(C)=O)cc2OC)ccc1O (centres undefined) | 29.4 | 47.4 | 95.5 | 36.2 | 29.2 | 40.6 |  | > 100 | 80.1 | 43.5 | 79.7 | > 100 | 94 |  | 
CC(=O)c1sc(=N)n(-c2c(C)cccc2C)c1C | > 100 | > 100 | > 100 | > 100 | > 100 | > 100 | > 100 | > 100 | > 100 | > 100 | > 100 | > 100 |  | > 100 | > 100
COc1ccc(NC2CC(C)N(C(=O)c3ccccc3)O2)cc1 (centres undefined) | > 10 | > 10 | > 10 |  | > 10 | > 10 | > 10 | > 10 | > 10 | > 10 | > 10 | > 10 | > 10 | > 10 | > 10
COc1ccccc1CNC(=O)[C@H](Cc1ccc(O)cn1)NC(C)=O | > 100 | > 100 | > 100 | > 100 | > 100 | > 100 | > 100 | > 100 |  | > 100 | > 100 | > 100 | > 100 | > 100 | > 100
CCOP(=O)(OCC)/C(C#N)=C/c1ccnc2ccccc12 | 47.8 | 57.5 |  | 61.4 | > 100 | 52.4 | > 100 | > 100 | 75.8 | > 100 | > 100 | 73.6 | 80.3 | > 100 | > 100
